Key:
[1] = test system: HIV-1 Y188L mutant strain; assay: microbe, parasite or virus in culture; format: cell-based; conditions: for SI Y188L: CC50/EC50; for EC50: Human immunodeficiency virus 1, MT4, read-out: EC50 Y188L; for RF Y188L: ratio of EC50 (resistant viral strain)/EC50 (wild-type viral strain)
[2] = Cytotoxicity in mock-infected MT-4 cell cultures, MTT method; conditions: human, mock-infected MT-4 cells
[3] = test system: HIV-1 F227L + V106A double-mutant strain; assay: microbe, parasite or virus in culture; format: cell-based; conditions: for SI F227L + V106A: CC50/EC50; for EC50: Human immunodeficiency virus 1, MT4, read-out: EC50 F227L + V106A; for RF F227L + V106A: ratio of EC50 (resistant viral strain)/EC50 (wild-type viral strain)
[4] = test system: HIV-1 L100I mutant strain; assay: microbe, parasite or virus in culture; format: cell-based; conditions: for SI L100I: CC50/EC50; for EC50: Human immunodeficiency virus 1, MT4, read-out: EC50 L100I; for RF L100I: ratio of EC50 (resistant viral strain)/EC50 (wild-type viral strain)
[5] = test system: HIV-1 K103N mutant strain; assay: microbe, parasite or virus in culture; format: cell-based; conditions: for SI K103N: CC50/EC50; for EC50: Human immunodeficiency virus 1, MT4, read-out: EC50 K103N; for RF K103N: ratio of EC50 (resistant viral strain)/EC50 (wild-type viral strain)
[6] = test system: HIV-1 Y181C mutant strain; assay: microbe, parasite or virus in culture; format: cell-based; conditions: for SI Y181C: CC50/EC50; for EC50: Human immunodeficiency virus 1, MT4, read-out: EC50 Y181C; for RF Y181C: ratio of EC50 (resistant viral strain)/EC50 (wild-type viral strain)
HIV-2 strain (ROD) = assay: Anti-HIV-2; format: cell-based; conditions: for EC50: Human immunodeficiency virus 2, MT4, read-out: EC50 ROD; for SI ROD: ratio of CC50/EC50
WT HIV-1 (IIIB) = assay: microbe, parasite or virus in culture; format: cell-based; conditions: for EC50: Human immunodeficiency virus 1, IIIB, MT4, read-out: EC50 IIIB; for SI IIIB: ratio of CC50/EC50
WT HIV-1 RT = WT HIV-1 RT (Human immunodeficiency virus type 1 group M subtype B, UniProt P03366); assay: Recombinant HIV-1 RT inhibitory assay; format: biochemical
[7] = test system: HIV-1 E138K mutant strain; assay: microbe, parasite or virus in culture; format: cell-based; conditions: for SI E138K: CC50/EC50; for EC50: Human immunodeficiency virus 1, MT4, read-out: EC50 E138K; for RF E138K: ratio of EC50 (resistant viral strain)/EC50 (wild-type viral strain)
[8] = test system: HIV-1 RES056 (K103N + Y181C) double-mutant strain; assay: microbe, parasite or virus in culture; format: cell-based; conditions: for SI RES056: CC50/EC50; for EC50: Human immunodeficiency virus 1, MT4, read-out: EC50 RES056; for RF RES056: ratio of EC50 (resistant viral strain)/EC50 (wild-type viral strain)

Structure (SMILES) | SI Y188L [1] | EC50 [1] [nM] | RF Y188L [1] | CC50 at 5 days [2] [nM] | SI F227L + V106A [3] | EC50 [3] [nM] | RF F227L + V106A [3] | SI L100I [4] | EC50 [4] [nM] | RF L100I [4] | SI K103N [5] | EC50 [5] [nM] | RF K103N [5] | SI Y181C [6] | EC50 [6] [nM] | RF Y181C [6] | EC50 (HIV-2 strain (ROD)) [nM] | EC50 (WT HIV-1 (IIIB)) [nM] | SI IIIB (WT HIV-1 (IIIB)) | IC50 (WT HIV-1 RT) [nM] | also measured
Cc1cc(-c2cccs2)cc(C)c1Oc1nc(NC2CCN(Cc3ccc(C(N)=O)cc3)CC2)nc2ccsc12 [Compound 16, 4-((4-((4-(2,6-Dimethyl-4-(thiophen-2-yl)phenoxy)thieno[3,2-d]pyrimidin-2-yl)amino)piperidin-1-yl)methyl)benzamide] | ≥ 33 | 619 ± 3.59 | 3.0 | ≥ 20500 | ≥ 19 | 1090 ± 226 | 5.4 | ≥ 28 | 731 ± 274 | 3.6 | ≥ 111 | 184 ± 90.2 | 0.9 | ≥ 28 | 731 ± 198 | 3.6 | > 20500 | 203 ± 51.5 | ≥101 | 595 ± 44 | SI E138K [7]: ≥ 31; EC50 [7]: 662 ± 58.4 nM; RF E138K [7]: 3.3; SI RES056 [8]: ≥ 2; EC50 [8]: 10000 nM; RF RES056 [8]: 49.2
Cc1cc(-c2ccco2)cc(C)c1Oc1nc(NC2CCN(Cc3ccc(S(N)(=O)=O)cc3)CC2)nc2ccsc12 [Compound 11, 4-((4-((4-(4-(Furan-2-yl)-2,6-dimethylphenoxy)thieno[3,2-d]pyrimidin-2-yl)amino)piperidin-1-yl)methyl)benzenesulfonamide] | 253 | 53.4 ± 2.15 | 3.0 | 13500 ± 3940 | 158 | 85.7 ± 9.71 | 4.8 | 151 | 89.3 ± 23 | 5.0 | 651 | 20.7 ± 2.75 | 1.2 | 213 | 63.5 ± 8.75 | 3.6 | 4150 ± 1780 | 17.7 ± 4.83 | 762 | 243 ± 37 | SI ROD (HIV-2 strain (ROD)): 3; SI E138K [7]: 271; EC50 [7]: 49.9 ± 0.35 nM; RF E138K [7]: 2.8; SI RES056 [8]: 24; EC50 [8]: 565 ± 22.5 nM; RF RES056 [8]: 31.9
Cc1cc(-c2ccoc2)cc(C)c1Oc1nc(NC2CCN(Cc3ccc(C(N)=O)cc3)CC2)nc2ccsc12 [Compound 14, 4-((4-((4-(4-(Furan-3-yl)-2,6-dimethylphenoxy)thieno[3,2-d]pyrimidin-2-yl)amino)piperidin-1-yl)methyl)benzamide] | 71 | 222 ± 30.5 | 3.9 | 15800 ± 7040 | 30 | 525 ± 21.1 | 9.1 | 60 | 262 ± 75 | 4.6 | 212 | 74.8 ± 2.93 | 1.3 | 88 | 180 ± 33.4 | 3.1 | 3180 ± 832 | 57.5 ± 12.7 | 275 | 249 ± 1 | SI ROD (HIV-2 strain (ROD)): 5; SI E138K [7]: 89; EC50 [7]: 177 ± 2.93 nM; RF E138K [7]: 3.1; SI RES056 [8]: 19; EC50 [8]: 813 ± 177 nM; RF RES056 [8]: 14.1
Cc1cc(-c2cccc(N(C)C)c2)cc(C)c1Oc1nc(NC2CCN(Cc3ccc(S(N)(=O)=O)cc3)CC2)nc2ccsc12 [Compound 31, 4-((4-((4-((3'-(Dimethylamino)-3,5-dimethyl-[1,1′-biphenyl]-4-yl)oxy)thieno[3,2-d]pyrimidin-2-yl)amino)piperidin-1-yl)methyl)benzenesulfonamide] | 55 | 1990 ± 46.5 | 2.3 | 110000 ± 1460 | 51 | 2160 ± 298 | 2.4 | 46 | 2400 ± 256 | 2.7 | 161 | 685 ± 0.21 | 0.8 | 48 | 2300 ± 413 | 2.6 | > 110000 | 882 ± 323 | 125 | 1680 ± 56 | SI ROD (HIV-2 strain (ROD)): <1; SI E138K [7]: 112; EC50 [7]: 979 ± 185 nM; RF E138K [7]: 1.1; SI RES056 [8]: 4; EC50 [8]: 29600 nM; RF RES056 [8]: 33.5
Cc1cc(-c2cccc(C#N)c2)cc(C)c1Oc1nc(NC2CCN(Cc3ccc(S(N)(=O)=O)cc3)CC2)nc2ccsc12 [Compound 27, 4-((4-((4-((3′-Cyano-3,5-dimethyl-[1,1′-biphenyl]-4-yl)oxy)thieno[3,2-d]pyrimidin-2-yl)amino)piperidin-1-yl)methyl)benzenesulfonamide] | 256 | 54.7 ± 2.26 | 4.1 | 14000 ± 8280 | 285 | 49.2 ± 8.26 | 3.7 | 569 | 24.6 ± 4.97 | 1.9 | 1639 | 8.56 ± 1.69 | 0.6 | 432 | 32.4 ± 4.07 | 2.4 | 4920 ± 2250 | 13.3 ± 2.6 | 1054 | 207 ± 6 | SI ROD (HIV-2 strain (ROD)): 3; SI E138K [7]: 402; EC50 [7]: 34.8 ± 9.28 nM; RF E138K [7]: 2.6; SI RES056 [8]: 40; EC50 [8]: 347 ± 75.9 nM; RF RES056 [8]: 26.1
Cc1cc(-c2ccoc2)cc(C)c1Oc1nc(NC2CCN(Cc3ccc(S(N)(=O)=O)cc3)CC2)nc2ccsc12 [Compound 13, 4-((4-((4-(4-(Furan-3-yl)-2,6-dimethylphenoxy)thieno[3,2-d]pyrimidin-2-yl)amino)piperidin-1-yl)methyl)benzenesulfonamide] | 117 | 133 ± 3.35 | 2.1 | 15600 ± 4970 | 44 | 358 ± 18.4 | 5.6 | 84 | 186 ± 29.4 | 2.9 | 249 | 62.9 ± 10.4 | 1.0 | 79 | 197 ± 16.1 | 3.1 | 6800 ± 1220 | 63.6 ± 11.4 | 246 | 265 ± 59 | SI ROD (HIV-2 strain (ROD)): 2; SI E138K [7]: 81; EC50 [7]: 193 ± 14.8 nM; RF E138K [7]: 3.0; SI RES056 [8]: 13; EC50 [8]: 1190 ± 184 nM; RF RES056 [8]: 18.8

Reference: paper PMC7280082 (Acta Pharmaceutica Sinica. B, 2019)
